Legend:
[1] = pharmacokinetic study in the monkey, PEG200 solution formulation; format: in vivo; settings: 500 mg/kg, fed conditions
Method: Initial pharmacokinetic studies on compound A1 were performed both in vitro and in the monkey using a solution formulation containing PEG200. Compound A1 in the PEG200 solution was determined to have bioavailability of 0.1% F when administered at a dose of 500 mg/kg to the monkey under fed conditions.

[2] = aqueous solubility and permeability, BCS classification; format: physicochemical
Source text: Compound A1 has a low aqueous solubility and low permeability and, thus, is classified as a BCS class IV compound, which presents a significant formulation challenge. Cook et al., AAPS J. 2008, 10, 306-310.

bioavailability [1]: 0.1 % F
aqueous solubility [2]: low
SMILES: COC(=O)N[C@H](C(=O)N1CCC[C@H]1c1nc2cc(-c3csc4c(-c5ccc(-c6cnc([C@@H]7CCCN7C(=O)[C@H](NC(=O)OC)c7ccccc7)[nH]6)cc5)csc34)ccc2[nH]1)C(C)C [compound A1, methyl N-[(1R)-2-[(2S)-2-[5-[4-[6-[2-[(2S)-1-[(2S)-2-(methoxycarbonylamino)-3-methyl-butanoyl]pyrrolidin-2-yl]-3H-benzimidazol-5-yl]thieno[3,2-b]thiophen-3-yl]phenyl]-1H-imidazol-2-yl]pyrrolidin-1-yl]-2-oxo-1-phenyl-ethyl]carbamate]

— patent US20170135990A1, “PHARMACEUTICAL COMPOSITIONS COMPRISING A 5,5-FUSED HETEROARYLENE FLAVIVIRIDAE INHIBITOR AND THEIR USE FOR TREATING OR PREVENTING FLAVIVIRIDAE INFECTION” (IDENIX PHARMACEUTICALS LLC, priority 2014, published 2017)
